# Results reported in patent US20190175528A1, “INHIBITION OF BIOFILM ORGANISMS” (NovaBiotics Limited, priority 2009, published 2019).
# Read-outs that look alike come from different tables or passages of the source.
# What was measured:
# Staphylococcus spp (4) = assay: microbe, parasite or virus in culture; type: cell-based; settings: agent alone, range over strains
# Description: (§1) The bacterial inoculum was established by the dilution method from actively-growing cultures in Mueller-Hinton broth, standardized with 0.5 McFarland turbidity standard as described in the CLSI method M26-A.
# (§2) To determine the prevention of biofilm formation, both the bacterial inoculum and the antimicrobial agents were added simultaneously to the plates. The plates were incubated at 37° C. for 24 h and the optical density was read at 625 nm on a microtitre plate reader (BioTek Powerwave XS, Winooski, USA). The MIC was obtained as the lowest concentration of antimicrobial showing total inhibition of bacterial growth.
# (§3) The FIC corresponds to an interaction coefficient indicating whether the combination of antimicrobial agents is synergistic, additive, antagonist or neutral. The FIC is determined by comparing the activity of an agent in combination (MIC of agent A+agent B) with the activity of the agent alone (MIC of agent A or agent B) as follow (Singh et al., 2000):
# (§4) FIC=MICA[combination]/MICA[alone]+MICB[combination]/MICB[alone]
# (§5) Additive combinations of two antimicrobial agents are indicated by a FIC index of 1, whereas a FIC index <1 indicates synergistic combinations. Neutral combinations would give a FIC between 1 and 4, a FIC index higher than 4 indicates antagonist effects between the two antimicrobial agents.
# (§6) Summary of the activity of the tested antimicrobial agents against the Gram-negative P. aeruginosa strains and the Gram-positive Staphylococcus spp. The number into brackets indicates the maximum number of strains tested. MIC: minimum inhibition concentration; MBEC: minimum biofilm eradication concentration; FIC: fractional inhibitory concentration.
# [1] = system: S. aureus DSM 11729 (MRSA); settings: data not shown; for bactericidal concentration, S. aureus DSM 11729: agent alone
# [2] = system: P. aeruginosa ATCC BAA-47 (PAO1) biofilm cells; assay: MBEC against 24 h-old biofilm; type: cell-based, Pseudomonas aeruginosa
# Description: (§7) The FIC was also calculated to assess the interaction of two antimicrobial agents in combination against bacterial biofilms. The same formulae applied, using MBEC instead of MIC.
# (§8) A total volume of 100 μl bacterial inoculum in Mueller-Hinton was added to each well of 96-well plates (challenge plates) and the plates were incubated at 37° C. for 24 h on a gyrorotary shaking platform (Grant-bio PS-3D, Shepreth, England) at 24 rpm to allow for biofilm formation.
# (§9) The challenge plates were then rinsed once with sterile PBS (lx) and two-fold serial dilutions of antimicrobial agents in Mueller-Hinton were added to the challenge plates. The challenge plates were incubated at 37° C. for 24 h on a gyrorotary shaking platform (Grant-bio PS-3D, Shepreth, England) at 24 rpm.
# (§10) The supernatants from each of the challenge plates were transferred into fresh plates and the optical density was measured at 625 nm on a microtitre plate reader (BioTek Powerwave XS, Winooski, USA). The MBEC was obtained by the lowest concentration of antimicrobial showing no bacterial growth.
# (§11) The assessment of the activity of NP108 and cysteamine against bacterial biofilms was carried out with 24 h-old biofilms and the activity of both compounds in combination was also determined. The activity of the antimicrobial agents against bacterial biofilms was determined by their activity against the biofilm cells and against the persister cells.
# [3] = system: P. aeruginosa ATCC27853 biofilm cells; type: cell-based, Pseudomonas aeruginosa; settings: for MBEC alone, P. aeruginosa ATCC27853: agent alone, FIG. 21a
# Description: as §8, §9, §10
# [4] = system: S. aureus DSM 11729 persister cells; assay: Relative viability of persister cells (SYTO9/PI live/dead fluorescence, microscopy); type: cell-based, Staphylococcus aureus; settings: agent alone, at low concentrations; FIG. 18
# Description: (§12) Following transfer of the supernatant from the challenge plates, the biofilms were rinsed once with sterile PBS (lx) and 100 μl of BacLight live/dead fluorescent staining solution (Invitrogen, Paisley, UK) containing 4 μM SYTO9 and 20 μM propidium iodide (PI) in sterile PBS (lx) were added to the wells of the challenge plates. The plates were incubated at room temperature in the dark for 15 min and the fluorescence was read at 485(ex)/528(em) and 485(ex)/645(em) for SYTO9 and PI fluorescence, respectively on a fluorescence microtitre plate reader (BioTek Synergy HT, Winooski, USA) with the sensitivity set at 50 and bottom optics position was selected. Direct observation of the biofilms with an Axiovert 40 fluorescence microscope (Zeiss, Gottingen, Germany) allowed identifying the presence of live and dead bacteria and pictures of the biofilms were taken at 100 to 400-fold magnification.
# (§13) The relative viability of persister cells was determined by the live/dead fluorescence measurements ratio and microscopic observations were used to confirm the presence or absence of live cells.
# The activity of NP108 and cysteamine against the persister cells was assessed using a fluorescence staining method to determine the relative viability of the cells. […]
# [5] = system: P. aeruginosa ATCC BAA-47 (PAO1) persister cells; assay: as above; type: cell-based, Pseudomonas aeruginosa; settings: agent alone; for activity against persister cells of P. aeruginosa ATCC BAA-47: relative viability remained significant, FIG. 12
# Description: as §12, §13
# The activity of NP108 and cysteamine against the persister cells was assessed using a fluorescence staining method to determine the relative viability of the cells. The nucleic acid-binding fluorescent molecules used were SYTO9 and PI, which penetrate all bacterial cells (green fluorescence) and membrane-disrupted cells (red fluorescence), respectively.
# [6] = system: Staphylococcus spp (4) persister cells; assay: Persister cells in biofilms (live/dead staining), summary over strains; type: cell-based; settings: agent alone; for Persisters, active concentration, Staphylococcus spp (4): persister cells
# Description: as §12, §13, §6
# [7] = system: P. aeruginosa strains (7); assay: microbe, parasite or virus in culture; type: cell-based, Pseudomonas aeruginosa; settings: agent alone, range over strains
# Description: as §1, §2, §3, §4, §5, §6
# [8] = system: P. aeruginosa ATCC BAA-47; settings: data not shown; for bactericidal concentration, P. aeruginosa ATCC BAA-47: agent alone
# [9] = system: P. aeruginosa ATCC BAA-47; assay: microbe, parasite or virus in culture; type: cell-based, Pseudomonas aeruginosa
# Description: as §1
# as §2, with “growth. […]” for “growth.”
# (§14) FIC=MICA[combination]/MICA[alone]+MICB[combination]/MICB[alone] […]
# (§15) In order to assess for the prevention of biofilm formation by both Gram-positive and Gram-negative bacteria, the bacterial inoculum and antimicrobial agents were added simultaneously in the plates. The range of concentrations of antimicrobial agents was 0-500 μg/ml NP108 and 0-320 μg/ml cysteamine against the Gram-negative bacteria P. aeruginosa ATCC BAA-47 and 0-1000 μg/ml NP108 and 0-320 μg/ml cysteamine against the Gram-positive MRSA.
# [10] = system: P. aeruginosa strains (7) biofilm cells; type: cell-based, Pseudomonas aeruginosa; settings: agent alone
# Description: as §7, §8, §9, §10, §6
# [11] = system: S. aureus DSM 11729 biofilm cells; type: cell-based, Staphylococcus aureus
# Description: as §7, §8, §9, §10, §11
# [12] = system: S. aureus DSM 11729 (MRSA); assay: microbe, parasite or virus in culture; type: cell-based, Staphylococcus aureus
# Description: as §1
# as §2, with “growth. […]” for “growth.”
# as §14, §15
# [13] = system: Gram-positive and Gram-negative persister cells; assay: Relative viability of persister cells (SYTO9/PI live/dead fluorescence); type: cell-based; settings: lowest concentration tested; FIG. 10
# Description: as §12, §13
# [14] = system: Staphylococcus spp (4) biofilm cells; type: cell-based; settings: agent alone; biofilm cells
# Description: as §7, §8, §9, §10, §6
# [15] = system: P. aeruginosa strains (7) persister cells; assay: Persister cells in biofilms (live/dead staining), summary over strains; type: cell-based, Pseudomonas aeruginosa; settings: agent alone
# Description: as §12, §13, §6
# [16] = system: S. epidermidis 12228 biofilm cells; assay: MBEC against 24 h-old biofilm; type: cell-based, Staphylococcus epidermidis; settings: agent alone
# Description: as §8, §9, §10, §11
# [17] = system: P. aeruginosa ATCC27853 persister cells; assay: Relative viability of persister cells (SYTO9/PI live/dead fluorescence); type: cell-based, Pseudomonas aeruginosa; settings: 1024 μg/ml NP341+3128 μg/ml N-acetylcysteine; FIG. 20b
# Description: as §12, §13
# [18] = system: methicillin-resistant S. aureus (MRSA) DSM 11729 planktonic cells; assay: Time course activity over a 48-h period against planktonic cells; type: cell-based, Staphylococcus aureus; settings: 0.25 mg/ml
# From the text: The range of concentrations tested as shown in the legends is in mg/ml.
# [19] = agent alone, prevention of biofilm formation, 24 h
Compound,"bactericidal concentration, S. aureus DSM 11729 [1]","MBEC [alone], P. aeruginosa ATCC BAA-47 biofilm cells ([2]; agent alone) [µg/mL]","MBEC alone, P. aeruginosa ATCC27853 [3]",activity against persister cells of S. aureus DSM 11729 [4],activity against persister cells of P. aeruginosa ATCC BAA-47 [5],"Persisters, active concentration, Staphylococcus spp (4) [6]","bactericidal concentration, P. aeruginosa ATCC BAA-47 [8] [µg/mL]","MBEC, P. aeruginosa strains (7) [10]","MBEC, S. aureus (MRSA) DSM 11729 biofilm cells ([11]; agent alone) [µg/mL]","MBEC, Staphylococcus spp (4) [14]","Persisters, active concentration, P. aeruginosa strains (7) [15]","MIC, Staphylococcus spp (4) (Staphylococcus spp (4)) [µg/mL]","MIC, P. aeruginosa strains (7) [7] [µg/mL]",further results
"NCCS [Cysteamine, cysteamine, reference compound]",more than 320 μg/ml,> 100.00,more than 100 mg/ml,lack of activity,lack of activity,"6,250-12,500 μg/ml",> 320,">5,000 μg/ml",250,">25,000 μg/ml","500-6,250 μg/ml",,,"MIC (Staphylococcus spp (4); Staphylococcus): 300 to 625 µg/mL; MBEC cysteamine[combination], P. aeruginosa ATCC BAA-47 biofilm cells ([2]; with 250 μg/ml NP108): 62.5 µg/mL; MIC ([7]; Pseudomonas aeruginosa): 300 to 2500 µg/mL; MIC ([9]; Pseudomonas aeruginosa, ATCCBAA47, agent alone, prevention of biofilm formation, 24 h): 320 µg/mL; MBEC cysteamine[combination], S. aureus DSM 11729 biofilm cells ([11]; with 31.25 μg/ml NP108): 62.5 µg/mL; MIC ([12]; Staphylococcus aureus, agent alone, prevention of biofilm formation, 24 h): > 320 µg/mL; concentration that suppressed the viability of Gram-positive and Gram-negative persister cells [13]: ≤ 6.25 mg/mL"
"N=C(N)NCCC[C@@H](N)C(=O)N[C@H](CCCNC(=N)N)C(=O)N[C@H](CCCNC(=N)N)C(=O)N[C@H](CCCNC(=N)N)C(=O)N[C@H](CCCNC(=N)N)C(=O)N[C@H](CCCNC(=N)N)C(=O)N[C@H](CCCNC(=N)N)C(=O)N[C@H](CCCNC(=N)N)C(=O)N[C@H](CCCNC(=N)N)C(=O)N[C@H](CCCNC(=N)N)C(=O)N[C@H](CCCNC(=N)N)C(=O)N[C@H](CCCNC(=N)N)C(=O)N[C@H](CCCNC(=N)N)C(N)=O [NP341, dRdRdRdRdRdRdRdRdRdRdRdRdR-CONH]",,,more than 2 mg/ml,,,,,">5,000 μg/ml",625,,625 µg/mL,250,31.25,"MBEC, S. epidermidis 12228 biofilm cells [16]: 625 µg/mL; inhibition of persister cells, P. aeruginosa ATCC27853 [17]: approximately 75%; reduction of viability of biofilm cells, P. aeruginosa BAA-47 (PAO1) ([2]; agent alone, FIG. 7): 2 to 3 fold; NP341 needed to reach the MBEC in combination, P. aeruginosa ATCC27853 ([3]; in combination with 3-6 mg/ml of N-acetylcysteine, FIG. 20a): 205 µg/mL; concentration that inhibits the viability of P. aeruginosa BAA-47 (PAO1) persister cells ([5]; FIG. 6, FIG. 8): 625 µg/mL; decrease of viability of persister cells of the 3 Staphylococcus species ([6]; FIG. 8): 25 to 50%; duration of complete inhibition [18]: 48 h; reduction of viability of biofilm cells, MRSA 11729 ([11]; agent alone, FIG. 7): 2 to 3 fold"
"poly-L-lysine, hydrobromide [NP108]",125 µg/mL,> 500,,lack of activity,lack of activity,>500 µg/mL,250,,125,125 to 250 µg/mL,,16 to 125,31.25 to 500,"bactericidal concentration of NP108 in combination, S. aureus DSM 11729 ([1]; with ≥80 μg/ml cysteamine): 62.5 µg/mL; bactericidal concentration of NP108 in combination, S. aureus DSM 11729 ([1]; with ≥160 μg/ml cysteamine): 31.25 µg/mL; NP108 concentration giving complete inhibition of bacterial growth, P. aeruginosa ATCC BAA-47 biofilm cells ([2]; with 31.25 μg/ml cysteamine): 500 µg/mL; MBEC NP108[combination], P. aeruginosa ATCC BAA-47 biofilm cells ([2]; with 62.5 to 500 μg/ml cysteamine): 250 µg/mL; bactericidal concentration of NP108 in combination, P. aeruginosa ATCC BAA-47 ([8]; with 320 μg/ml cysteamine): 125 µg/mL; MIC, P. aeruginosa ATCC BAA-47 [9, 19]: 62.5 µg/mL; MIC of NP108 in the presence of cysteamine, P. aeruginosa ATCC BAA-47 ([9]; in the presence of 160 μg/ml cysteamine): 31.25 µg/mL; MBEC NP108[combination], S. aureus DSM 11729 biofilm cells ([11]; with 62.5 μg/ml cysteamine): 31.25 µg/mL; MIC of NP108 in the presence of cysteamine, S. aureus DSM 11729 ([12]; 320 μg/ml cysteamine added): 15.625 µg/mL; MIC, S. aureus DSM 11729 [12, 19]: 125 µg/mL; MIC of NP108 in the presence of cysteamine, S. aureus DSM 11729 ([12]; in the presence of 40 μg/ml cysteamine): 31.25 µg/mL"
